Results published in ChEMBL document CHEMBL1147247, “New cytotoxic sesterterpenoids and norsesterterpenoids from two sponges of the genus Sarcotragus” (2003).
Values after ≈ are worked out from the molar mass of the structure shown.

How the values were obtained:
Format in all cases: functional
Conditions in all cases: read-out: ED50 (the source's name)
HCT-15 = experiment: Cytotoxicity against human HCT15 cells
SK-OV-3 = experiment: Cytotoxicity against human SKOV3 cells
XF498 = experiment: Cytotoxicity against human XF498 cells
A549 = experiment: Cytotoxicity against human A549 cells
SK-MEL-2 = experiment: Cytotoxicity against human SK-MEL-2 cells

C/C(=C\CCc1ccoc1)C[C@@H]1C=C(C/C=C/c2ccoc2)C(=O)O1
EC50 (HCT-15): 4.2 µg/mL (≈ 12.4 µM)
EC50 (SK-OV-3): 32.3 µg/mL (≈ 95.4 µM)
EC50 (XF498): 11.8 µg/mL (≈ 34.9 µM)
EC50 (A549): 7.9 µg/mL (≈ 23.3 µM)
EC50 (SK-MEL-2): 4.5 µg/mL (≈ 13.3 µM)

COC1C=C(CCC/C(C)=C/C=C/[C@@H](C)CC/C=C(/C)C[C@H]2OC(=O)C(C)=C2O)C(=O)O1 (stereo not given in full)
EC50 (HCT-15): 33 µg/mL (≈ 74.2 µM)
EC50 (SK-OV-3): > 30 µg/mL
EC50 (XF498): > 30 µg/mL
EC50 (A549): > 30 µg/mL
EC50 (SK-MEL-2): 10.9 µg/mL (≈ 24.5 µM)

COc1cccc2c1C(=O)c1c(O)c3c(c(O)c1C2=O)C[C@@](O)(C(=O)CO)C[C@@H]3O[C@H]1C[C@H](N)[C@H](O)[C@H](C)O1 [DOXORUBICIN]
EC50 (HCT-15): 0.24 µg/mL (≈ 0.442 µM)
EC50 (SK-OV-3): 0.15 µg/mL (≈ 0.276 µM)
EC50 (XF498): 0.19 µg/mL (≈ 0.35 µM)
EC50 (A549): 0.04 µg/mL (≈ 0.0736 µM)
EC50 (SK-MEL-2): 0.06 µg/mL (≈ 0.11 µM)

CC1=C(O)[C@@H](C/C(C)=C\CC[C@H](C)/C=C/C=C(\C)CCCC2=CC(=O)N(CC(=O)[O-])C2)OC1=O.[Na+] [ISOSARCOTRINE E]
EC50 (HCT-15): > 30 µg/mL
EC50 (SK-OV-3): > 30 µg/mL
EC50 (XF498): > 30 µg/mL
EC50 (A549): > 30 µg/mL
EC50 (SK-MEL-2): > 30 µg/mL

COC(=O)[C@H](O)C/C(C)=C\CC[C@H](C)/C=C/C=C(\C)CCCC1=CC(=O)O[C@H]1O [SARCOTIN N]
EC50 (HCT-15): 21.7 µg/mL (≈ 53.4 µM)
EC50 (SK-OV-3): > 30 µg/mL
EC50 (XF498): > 30 µg/mL
EC50 (A549): 19.4 µg/mL (≈ 47.7 µM)
EC50 (SK-MEL-2): 10.9 µg/mL (≈ 26.8 µM)

CC(=O)C(O)C(O)C/C(C)=C\CC[C@H](C)/C=C/C=C(\C)CCCC1=CC(=O)OC1O (stereo not given in full) [SARCOTIN O]
EC50 (HCT-15): 4.6 µg/mL (≈ 10.9 µM)
EC50 (SK-OV-3): 14.9 µg/mL (≈ 35.4 µM)
EC50 (XF498): 11.5 µg/mL (≈ 27.3 µM)
EC50 (A549): 6.8 µg/mL (≈ 16.2 µM)
EC50 (SK-MEL-2): 3 µg/mL (≈ 7.13 µM)

CC1=C(O)[C@@H](C/C(C)=C\CC[C@H](C)/C=C/C=C(\C)CCCC2=CCN(CC(=O)[O-])C2=O)OC1=O.[Na+] [SARCOTRINE E]
EC50 (HCT-15): > 30 µg/mL
EC50 (SK-OV-3): > 30 µg/mL
EC50 (XF498): > 30 µg/mL
EC50 (A549): > 30 µg/mL
EC50 (SK-MEL-2): > 30 µg/mL
